From US5320825A, “Serotonin reuptake inhibitors for S.P.E.C.T. imaging” (Trustees of the University of Pennsylvania, priority 1991, dated 1994)
Counter-ions that a name gives are not always drawn. Like-named read-outs stand apart in the source and are kept apart here.

Assays:
[1] = target: serotonin reuptake system (5-HT); conditions: read-out: Inhibition of monoamine uptake, 5-HT (Ki), cited from earlier work
[2] = target: dopamine (DA) reuptake system; conditions: read-out: Inhibition of monoamine uptake, DA (Ki), cited from earlier work
[3] = target: norepinephrine (NE) reuptake system; conditions: rat synaptosomes; read-out: Inhibition of monoamine uptake, NE (Ki); cited from earlier work
[4] = target: T1, serotonin reuptake sites (Rattus norvegicus, UniProt P31652); assay: in vitro competitive binding assay, serotonin uptake sites, [3H]-Paroxetine
T1 construct: in rat brain tissue preparation; from tissue
T1 sequence (P31652 whole entry): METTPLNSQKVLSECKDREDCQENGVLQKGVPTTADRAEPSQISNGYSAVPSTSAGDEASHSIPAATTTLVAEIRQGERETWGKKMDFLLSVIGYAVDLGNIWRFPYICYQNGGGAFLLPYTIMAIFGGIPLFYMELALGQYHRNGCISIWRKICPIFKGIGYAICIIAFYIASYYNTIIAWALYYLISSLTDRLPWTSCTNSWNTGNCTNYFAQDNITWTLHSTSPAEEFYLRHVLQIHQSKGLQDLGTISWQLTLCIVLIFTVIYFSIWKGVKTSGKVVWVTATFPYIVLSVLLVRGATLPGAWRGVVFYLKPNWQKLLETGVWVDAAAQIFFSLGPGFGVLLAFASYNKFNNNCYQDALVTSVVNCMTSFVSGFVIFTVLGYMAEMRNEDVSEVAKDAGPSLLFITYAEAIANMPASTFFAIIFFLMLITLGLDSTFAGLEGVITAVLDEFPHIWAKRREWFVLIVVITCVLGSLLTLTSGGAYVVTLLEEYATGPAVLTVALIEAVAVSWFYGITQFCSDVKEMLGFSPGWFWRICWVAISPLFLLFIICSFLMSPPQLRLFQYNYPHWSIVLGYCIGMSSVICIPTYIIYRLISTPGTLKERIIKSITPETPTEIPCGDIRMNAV
Description: (§1) The affinity of the compounds prepared in Examples 1-4 to serotonin and norepinephrine uptake sites was studied using in vitro competitive binding assays.

[5] = target: norepinephrine reuptake sites (Rattus norvegicus, UniProt Q63380); assay: in vitro competitive binding assay, norepinephrine uptake sites, [3H]-Nisoxetine; conditions: rat brain tissue preparation
Chain of norepinephrine reuptake sites (Q63380 1-617): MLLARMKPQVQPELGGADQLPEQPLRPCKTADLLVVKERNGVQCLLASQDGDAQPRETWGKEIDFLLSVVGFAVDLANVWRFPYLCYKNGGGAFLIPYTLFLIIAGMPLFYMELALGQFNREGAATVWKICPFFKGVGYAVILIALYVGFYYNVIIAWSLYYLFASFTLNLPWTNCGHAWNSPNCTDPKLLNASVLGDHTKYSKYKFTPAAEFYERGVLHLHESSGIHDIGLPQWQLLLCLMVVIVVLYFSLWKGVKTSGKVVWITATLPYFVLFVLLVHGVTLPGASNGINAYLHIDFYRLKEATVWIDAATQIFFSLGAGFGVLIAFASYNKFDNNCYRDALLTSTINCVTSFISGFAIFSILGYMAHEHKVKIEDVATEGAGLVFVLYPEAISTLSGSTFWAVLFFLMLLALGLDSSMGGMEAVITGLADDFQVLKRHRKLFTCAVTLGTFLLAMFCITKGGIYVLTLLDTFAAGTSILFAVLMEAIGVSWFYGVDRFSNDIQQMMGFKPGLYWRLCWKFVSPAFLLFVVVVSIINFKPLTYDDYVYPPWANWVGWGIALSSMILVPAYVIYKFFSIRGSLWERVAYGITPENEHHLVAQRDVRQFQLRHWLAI
Description: as §1

[6] = Biodistribution of compound 7 in rats after an iv injection; assay type: in vivo; conditions: rat
Procedure: The biodistribution of [R]-(-)-N-methyl-3-phenyl-3-(4-^123 I-2-methylphenoxy)propylamine hydrochloride (compound 7) in rats, after intravenous injection, was analyzed. Results are presented in Table 4 and indicate that moderate brain uptake (0.64-0.84% dose/organ) is found consistently throughout the two hour period.

[7] = for Biodistribution, Blood / Biodistribution, Brain / Biodistribution, Heart / Biodistribution, Kidney / Biodistribution, Liver / Biodistribution, Lung / Biodistribution, Muscle / Biodistribution, Skin / Biodistribution, Spleen / Biodistribution, Thyroid: rat, iv
[8] = tested on: rat brain sections; conditions: ex vivo autoradiography, 2 hr. post i.v. injection, paroxetine 10 mg/Kg, i.p.
[9] = tested on: prefrontal cortex membrane of rat brain; conditions: in vitro
[10] = n = 3, 2nd time column (time not given)
[11] = n = 3, 4th time column (time not given)

CNCCC(Oc1ccccc1OC)c1ccccc1 (stereo not shown) [Nisoxetine]
Ki ([1]; rat synaptosomes): 3.8 nM | Ki ([2]; rat synaptosomes): 365 nM | Ki [3]: 670 nM

CNCC[C@@H](Oc1ccc(I)cc1C)c1ccccc1.Cl [Compound 7, [R]-(-)-N-Methyl-3-phenyl-3-(4-iodo-2-methylphenoxy)propylamine hydrochloride]
Ki [4]: 5 nM | IC50 [5]: 20 nM | Biodistribution, Blood [6, 10]: 2.19 ± 0.32 % dose/organ | Biodistribution, Brain [6, 10]: 0.80 ± 0.04 % dose/organ | Biodistribution, Heart [6, 10]: 0.55 ± 0.04 % dose/organ | Biodistribution, Kidney [6, 10]: 2.70 ± 0.48 % dose/organ | Biodistribution, Lung [6, 10]: 9.36 ± 1.52 % dose/organ | Biodistribution, Skin [6, 10]: 6.75 ± 1.35 % dose/organ | Biodistribution, Spleen [6, 10]: 1.09 ± 0.32 % dose/organ | Biodistribution, Thyroid [6, 10]: 0.07 ± 0.02 % dose/organ | Biodistribution, Blood [6, 11]: 2.39 ± 0.33 % dose/organ | Biodistribution, Brain [6, 11]: 0.68 ± 0.01 % dose/organ | Biodistribution, Kidney [6, 11]: 1.12 ± 0.44 % dose/organ | Biodistribution, Lung [6, 11]: 6.81 ± 0.76 % dose/organ | Biodistribution, Skin [6, 11]: 6.92 ± 0.83 % dose/organ | Biodistribution, Spleen [6, 11]: 0.79 ± 0.05 % dose/organ | brain uptake ([6]; throughout the two hour period): 0.64-0.84 % dose/organ

CNCCC(Oc1ccc(C(F)(F)F)cc1)c1ccc([125I])cc1 (racemic) [Compound 15, iodo-fluoxetine]
initial brain uptake ([7]; 2 min.): 0.68 % dose/organ | brain retention ([7]; 8 hr.): 0.63 % dose/organ | Biodistribution, Blood ([7]; 2 min.): 3.03 ± 0.40 % dose/organ | Biodistribution, Brain ([7]; 2 min.): 0.61 ± 0.12 % dose/organ | Biodistribution, Heart ([7]; 2 min.): 2.27 ± 0.31 % dose/organ | Biodistribution, Kidney ([7]; 2 min.): 4.16 ± 0.36 % dose/organ | Biodistribution, Liver ([7]; 2 min.): 15.92 ± 2.41 % dose/organ | Biodistribution, Lung ([7]; 2 min.): 11.09 ± 2.32 % dose/organ | Biodistribution, Muscle ([7]; 2 min.): 12.71 ± 5.3 % dose/organ | Biodistribution, Skin ([7]; 2 min.): 4.90 ± 0.50 % dose/organ | Biodistribution, Spleen ([7]; 2 min.): 0.61 ± 0.06 % dose/organ | Biodistribution, Thyroid ([7]; 2 min.): 0.10 ± 0.04 % dose/organ | Biodistribution, Blood ([7]; 15 min.): 1.71 ± 0.31 % dose/organ | Biodistribution, Brain ([7]; 15 min.): 0.68 ± 0.02 % dose/organ | Biodistribution, Heart ([7]; 15 min.): 1.14 ± 0.04 % dose/organ | Biodistribution, Kidney ([7]; 15 min.): 4.05 ± 0.44 % dose/organ | Biodistribution, Liver ([7]; 15 min.): 16.27 ± 2.35 % dose/organ | Biodistribution, Lung ([7]; 15 min.): 6.77 ± 0.25 % dose/organ | Biodistribution, Muscle ([7]; 15 min.): 16.01 ± 4.55 % dose/organ | Biodistribution, Skin ([7]; 15 min.): 5.84 ± 0.95 % dose/organ | Biodistribution, Spleen ([7]; 15 min.): 0.93 ± 0.15 % dose/organ | Biodistribution, Thyroid ([7]; 15 min.): 0.07 ± 0.03 % dose/organ | Biodistribution, Blood ([7]; 60 min.): 3.16 ± 0.36 % dose/organ | Biodistribution, Brain ([7]; 60 min.): 0.78 ± 0.01 % dose/organ | Biodistribution, Heart ([7]; 60 min.): 0.43 ± 0.05 % dose/organ | Biodistribution, Kidney ([7]; 60 min.): 2.32 ± 0.38 % dose/organ | Biodistribution, Liver ([7]; 60 min.): 17.64 ± 1.88 % dose/organ | Biodistribution, Lung ([7]; 60 min.): 7.32 ± 0.45 % dose/organ | Biodistribution, Muscle ([7]; 60 min.): 22.63 ± 4.48 % dose/organ | Biodistribution, Skin ([7]; 60 min.): 10.76 ± 2.85 % dose/organ | Biodistribution, Spleen ([7]; 60 min.): 1.20 ± 0.13 % dose/organ | Biodistribution, Thyroid ([7]; 60 min.): 0.08 ± 0.01 % dose/organ | Biodistribution, Blood ([7]; 120 min.): 3.62 ± 0.24 % dose/organ | Biodistribution, Brain ([7]; 120 min.): 0.84 ± 0.073 % dose/organ | Biodistribution, Heart ([7]; 120 min.): 0.48 ± 0.02 % dose/organ | Biodistribution, Kidney ([7]; 120 min.): 1.82 ± 0.21 % dose/organ | Biodistribution, Liver ([7]; 120 min.): 11.55 ± 0.78 % dose/organ | Biodistribution, Lung ([7]; 120 min.): 7.21 ± 0.36 % dose/organ | Biodistribution, Muscle ([7]; 120 min.): 24.22 ± 0.68 % dose/organ | Biodistribution, Skin ([7]; 120 min.): 10.08 ± 0.78 % dose/organ | Biodistribution, Spleen ([7]; 120 min.): 1.09 ± 0.07 % dose/organ | Biodistribution, Thyroid ([7]; 120 min.): 0.10 ± 0.02 % dose/organ | Biodistribution, Blood ([7]; 240 min.): 4.99 ± 0.70 % dose/organ | Biodistribution, Brain ([7]; 240 min.): 0.70 ± 0.031 % dose/organ | Biodistribution, Heart ([7]; 240 min.): 0.28 ± 0.01 % dose/organ | Biodistribution, Kidney ([7]; 240 min.): 1.18 ± 0.17 % dose/organ | Biodistribution, Liver ([7]; 240 min.): 11.52 ± 0.91 % dose/organ | Biodistribution, Lung ([7]; 240 min.): 7.57 ± 2.36 % dose/organ | Biodistribution, Muscle ([7]; 240 min.): 20.38 ± 2.67 % dose/organ | Biodistribution, Skin ([7]; 240 min.): 8.27 ± 0.75 % dose/organ | Biodistribution, Spleen ([7]; 240 min.): 0.71 ± 0.11 % dose/organ | Biodistribution, Thyroid ([7]; 240 min.): 0.14 ± 0.001 % dose/organ | Biodistribution, Blood ([7]; 480 min.): 7.61 ± 1.11 % dose/organ | Biodistribution, Brain ([7]; 480 min.): 0.61 ± 0.07 % dose/organ | Biodistribution, Heart ([7]; 480 min.): 0.32 ± 0.03 % dose/organ | Biodistribution, Kidney ([7]; 480 min.): 1.11 ± 0.06 % dose/organ | Biodistribution, Liver ([7]; 480 min.): 16.47 ± 2.03 % dose/organ | Biodistribution, Lung ([7]; 480 min.): 5.00 ± 0.46 % dose/organ | Biodistribution, Muscle ([7]; 480 min.): 19.90 ± 2.61 % dose/organ | Biodistribution, Skin ([7]; 480 min.): 10.78 ± 0.07 % dose/organ | Biodistribution, Spleen ([7]; 480 min.): 0.52 ± 0.048 % dose/organ | Biodistribution, Thyroid ([7]; 480 min.): 0.22 ± 0.06 % dose/organ | initial heart uptake ([7]; rats, 2 min. post injection): 2.3% | heart uptake ([7]; rats, 8 hr. post injection): 0.3% | regional distribution pattern in rat brain sections, effect of paroxetine pretreatment [8]: not altered by pretreatment of paroxetine | non-specific binding [9]: strong non-specific binding

CNCC[C@H](Oc1ccc(I)cc1C)c1ccccc1 [Compound 14, {S}-(+)-N-Methyl-3-phenyl-3-(4-iodo-2-methylphenoxy)propylamine hydrochloride]
Ki [4]: 0.8 nM | IC50 [5]: 9 nM

CNCC[C@@H](Oc1cccc(I)c1)c1ccccc1 [Compound 4, [R]-(-)-N-Methyl-3-phenyl-3-(3-iodophenoxy)propylamine]
Ki [4]: 0.8 nM | IC50 [5]: 500 nM

CN[C@@H]1C[C@H](c2ccc(Cl)c(Cl)c2)c2ccccc21 (relative stereo) [Indatraline cis, Indatraline]
Ki [1]: 0.03 nM | Ki [2]: 860 nM | Ki [3]: 34 nM

CN[C@@H]1C[C@@H](c2ccc(Cl)c(Cl)c2)c2ccccc21 (relative stereo) [Indatraline trans, Indatraline]
Ki [1]: 0.58 nM | Ki [2]: 2000 nM | Ki [3]: 90 nM

CNCC[C@H](Oc1cccc(I)c1)c1ccccc1 [Compound 11, [S]-(+)-N-Methyl-3-phenyl-3-(3-iodophenoxy)propylamine]
Ki ([4]; rat brain tissue preparation, [3H]-Paroxetine, read-out: Serotonin Uptake [3H]-Paroxetine Ki): 8.2 nM | IC50 [5]: 7000 nM

Fc1ccc([C@@H]2CCNC[C@H]2COc2ccc3c(c2)OCO3)cc1 [Paroxetine]
Ki [3]: 350 nM

CNCCC(Oc1ccc(C(F)(F)F)cc1)c1ccccc1 (stereo not shown) [Fluoxetine]
Ki [2]: 1590 nM

CN[C@@H]1CC[C@@H](c2ccccc2)c2ccccc21 [Tametraline]
Ki ([1]; rat synaptosomes): 50 nM | Ki ([2]; rat synaptosomes): 60 nM | Ki [3]: 20 nM
